Results published in PMC6099493, “Discovery of Matrinic Thiadiazole Derivatives as a Novel Family of Anti-Liver Fibrosis Agents via Repression of the TGFβ/Smad Pathway” (Molecules : A Journal of Synthetic Chemistry and Natural …, 2018).
Counter-ions that a name gives are not always drawn.

How the values were obtained:
COL1A1 promotor = COL1A1 promotor single luciferase reporter gene model in LX-2 (LX2-COL) cells; format: cell-based, human; conditions: Homo sapiens, LX-2 cells treated simultaneously with TGFβ1 and compound, read-out: Inhibition Percentage (inhibition rate of COL1A1 promotor's activity in LX2 cells)
[1] = MTT cytotoxicity / cell survival assay; format: cell-based; conditions: human, HepG2 cells, read-out: CC50 (cytotoxic concentration required to inhibit HepG2 cell growth by 50%)
Method: (§1) A single luciferase reporter gene detection model was applied to screen the inhibitory effects towards COL1A1 promotor of all target compounds in human hepatic stellate LX-2 cells at the concentration of 40 μM, taking EGCG and compound 1 as the positive controls. The LX2-COL monoclone cell line was treated simultaneously with TGFβ1 and a target compound [13]. The cytotoxicity was determined using MTT assay in HepG2 cells.
(§2) The cell survival was evaluated by MTT assay. HepG2 cells were seeded at density of 6 × 10^3 cells/well in 96-well plate. Cells were treated with various concentrations of matrinic derivate until the cells at 50% confluence. After 24 h of incubation, 20 µL of the MTT (5 mg/mL) solution was added into each plate and incubated for 4 h at 37 °C, 5% CO2. Subsequently, the culture supernatant was replaced with 150 µL DMSO to dissolve the formazan crystal. The absorbance at 570 nm was measured using a microplate reader (ELx800, BioTek Instruments, Winooski, VT, USA).

HepG2 cells = assay: MTT cytotoxicity / cell survival assay; format: cell-based; conditions: read-out: CC50 (cytotoxic concentration required to inhibit HepG2 cell growth by 50%)
Method: as §1, §2

α-SMA mRNA = α-SMA mRNA level by real-time PCR in TGFβ1-stimulated LX-2 cells; format: cell-based, human; conditions: 80 μM, TGFβ1 2 ng/mL
Method: (§3) α-SMA is a more commonly recognized indicator for liver fibrosis, and it could be induced by a stimulation of TGFβ1 [22], therefore, the amounts of α-SMA were also evaluated.
(§4) LX-2 cells were seeded in 6-well plate, cultured in DMEM, containing 10% fetal bovine serum (FBS) in a 5% CO2 atmosphere at 37 °C. And serum-free culture was required until the cells at 90–95% confluence. After 24 h, cells were treated with TGFβ1 (2 ng/mL) and matrinic derivatives (80 μM) for 24 h. Total RNA from the LX-2 cells was extracted using Trizol reagent, purified by NucleoSpin RNA Clean-up. Reverse transcription was performed with a Transcriptor first strand cDNA synthesis kit. The cDNA was then analysis by ABI 7500 Fast Real-Time PCR System (ThermoFisher Scientific, Singapore) using TaqMan probes of TGFβ1, COL1A1, α-SMA, and GAPDH (sequence reserved by ABI, Foster City, CA ,USA) and FastStart Universal Probe master mix (Roche, Indianapolis, IN, USA).

α-SMA protein = α-SMA protein level by western blot in LX-2 cells; format: cell-based; conditions: Homo sapiens, TGFβ1 2 ng/mL, read-out: α-SMA protein level inhibition rate
Method: as §3
(§5) LX-2 cells were cultured as described above. Briefly, cells were washed with phosphate-buffered saline (PBS) and were lysed in radioimmunoprecipitation assay (RIPA) lysis for 30 min in 4 °C; the supernatant was collected after centrifugation at 12,000× g, 4 °C for 15 min. Equal amounts of protein were quantified with Bradford assay, separated by SDS-PAGE and transferred to polyvinylidene difluoride membrane. The membranes were blocked for one hour at room temperature in PBST containing 5% milk and probed with specific first antibodies overnight at room temperature. Membrane was washed 3 times by PBST, followed by horseradish peroxidase-conjugated secondary antibodies and GAPDH. The proteins were visualized using chemiluminescence reagents.

COL1A1 protein = COL1A1 protein level by western blot in LX-2 cells; format: cell-based; conditions: Homo sapiens, TGFβ1 2 ng/mL, read-out: COL1A1 protein level inhibition rate
Method: (§6) Next, compounds 6i, 6l and 6n were chosen as the key compounds to verify their inhibitory effects against COL1A1. LX-2 cells were stimulated with TGFβ1 (2 ng/mL), and then treated with compounds 6i, 6l and 6n (80 μM) respectively, taking 1 as the control. Their anti-COL1A1 effects were evaluated on RNA level by real-time PCR amplification. […] Then their anti-COL1A1 effects were investigated on the protein level by western blot assays.
as §5

COL1A1 mRNA = COL1A1 mRNA level by real-time PCR in TGFβ1-stimulated LX-2 cells; format: cell-based, human; conditions: 80 μM, TGFβ1 2 ng/mL
Method: as §6, §4

[2] = test system: Smad2 / phosphorylated Smad2 (TGFβ/Smad pathway); assay: Smad2 and p-Smad2 levels by western blot in LX-2 cells; format: cell-based, human
Method: Considering the key role of TGFβ/Smad pathway in activating COL1A1, the effects of the three compounds on Smad and phosphorylated Smad were then evaluated.
as §5

Kunming mice = conditions: female, mouse, in vivo, po, 7 days
Method: To evaluate the safety profile of 6n, an acute toxicity test was performed in Kunming mice. Compound 6n was given orally in a single-dosing experiment at 125, 250 or 500 mg·kg^−1, respectively. The mice were closely monitored for 7 days. To our delight, it gave the median lethal dose (LD50) value over 500 mg·kg^−1, indicating a good safety profile in vivo.
Female Kunming mice with weight of 20.0 (±1.0 g) were obtained from the Institute of Laboratory Animal Science (Beijing, China). Animals were cared according to the institutional guidelines of the Institute of Materia Medica, CAMS&PUMC (00000364). The mice were fed with regular rodent chow and housed in an air conditioned room. The mice were randomly divided into different groups with 6 mice each. Each compound was given orally in a single-dosing experiment at 0, 250, 500, 750 or 1000 mg·kg^−1 (ddH2O as control), respectively. The mice were closely monitored for 7 days. Body weight as well as survival was monitored.

Row | Compound | inhibition at 40 µM (COL1A1 promotor) | CC50 at 24 h [1] | CC50 (HepG2 cells) | α-SMA mRNA level inhibitory rate (α-SMA mRNA) | inhibition at 80 µM (α-SMA protein) | melting point | inhibition at 80 µM (COL1A1 protein) | COL1A1 mRNA level inhibitory rate (COL1A1 mRNA) | Effect on Smad level [2] | Effect on phosphorylation level of Smad2 (in words) [2] | median lethal dose (LD50) (Kunming mice) | Inhibition rate of Smad2 phosphorylation level [2]
1 | Cc1ccc(S(=O)(=O)N2CC3CCCN4CCCC(C34)C2CCCc2nnc(Nc3ccccc3)s2)cc1 (stereo not shown) [Compound 6e, 12-N-p-Methylbenzenesulfonyl-3′-(N-phenyl-5-amino-1,3,4-thiadiazol-2-yl)-matrinic propane] | 69% | > 82.6 µM | 82.5 µM | – | – | – | – | – | – | – | – | –
2 | Nc1nnc(CCCC2C3CCCN4CCCC(CN2Cc2ccccc2)C34)s1 (stereo not shown) [Compound 6i, 12-N-Benzyl-3′-(5-amino-1,3,4-thiadiazol-2-yl)-matrinic propane] | 47.8% | > 320 µM | – | 75.1% | 64.9% | 170 to 171 °C | 65% | 46.1% | did not affect the Smad level | repressed the phosphorylation level of Smad2 significantly | – | –
3 | Cc1ccc(CN2CC3CCCN4CCCC(C2CCCc2nnc(N(C)C)s2)C34)cc1 (stereo not shown) [Compound 6n, 12-N-p-Methylbenzyl-3′-(N,N-dimethyl-5-amino-1,3,4-thiadiazol-2-yl)-matrinic propane hydrochloride] | 39.7% | > 320 µM | – | 87.6% | 104% | – | 47.6% | 78.4% | did not affect the Smad level | repressed the phosphorylation level of Smad2 significantly | over 500 mg·kg^−1 | 49.8%
